Test results taken from patent US8603999B2, “Amphiphile prodrugs” (Commonwealth Scientific and Industrial Research Organisation, priority 2008, dated 2013).

How the values were obtained:
[1] = Particle size distribution of dispersions by dynamic light scattering; type: physicochemical; details: for mean (average) particle size / particle size distribution: DLS at 25° C., 5-FCPhy and 5-FCOle after membrane extrusion, 5-FCPal solid lipid particles; for Average Particle size: dispersions used in the hydrolysis study, physiological temperature
Procedure: BASF) equivalent to 10% (w/w) of neat amphiphile and absolute ethanol were weighed in a sample vial. […] These crude dispersions were then passed through a series of PC membranes from the size range from 1 um to 100 nm to obtain a more uniform size distribution for the particles. The equipment used for size control is a mini-extruder (Avanti Polar Lipids, USA). […] The final concentration of colloidosomes were determined by ultra performance liquid chromatography (UPLC) and then diluted to 1 mg/mL for use in the enzyme hydrolysis study The particle size distribution and morphology of the above suspensions were determined using the method as described herein by using zetasizer and cryo-TEM characterisation methods. Solid lipid particles of prodrug 5-FCPal were prepared using mechanical methods. […] The melted prodrug and poloxamer mixture was then transferred to 40 mL of pre-warmed water upon vigorous vortexing. The mixture was then sheared with a rough homogenizer (Ultra Turrax®, T18 Basic, IKA® Werke GmbH & Co. KG, Germany) at 14,000 rpm for 10 min. The resultant dispersion was further transferred to the ultrasonic benchtop cleaner for a few hours of ultra sonication. […] Determination of the particle size distribution of the colloidosome and solid lipid particle dispersions were carried out using a Zetasizer (nano zs, Malvern, England) equipped with a He—Ne Laser (4 mw, 633 nm) and an avalanche photodiode detector. […] […] The size distribution was recorded by intensity.

[2] = system: 4T1 tumour; assay: Second 4T1 tumour study, daily dosing for 17 days (Example 7)
From the text: Also, the dosage of both compounds was increased to 1.5 mmol for each treatment.

[3] = system: 4T1 cells (mouse breast cancer cells); assay: 4T1 mouse breast tumour in BALB/c mice, oral daily dosing for 21 days (Example 6); type: in vivo
Procedure: 90 female BALB/c were injected with 5×10^4 4T1 cells (mouse breast cancer cells) in the second mammary fat pad on the right hand side. The tumour was allowed to form for 6 days prior to drug administration. On day 6, tumours were palpable in most of the mice. […] Mice were placed into groups of 6, and 15 different treatments were administered orally on a daily basis for 21 days.
The length and breadth of the tumours were measured and recorded on day 1, 4, 7, 14, and 21 of the drug administration. On Day 22, mice were euthanized. Blood was collected via cardiac puncture, followed by removal of the tumour, liver, spleen and kidney for histological analysis. Lungs were injected with indium ink prior to removal to allow for quantification of the number of lung metastasis in each animal.

[4] = system: Carboxylesterase from porcine liver; assay: Hydrolysis of prodrugs by porcine liver carboxylesterase (CES), LC/MS; details: for SA relative to 5-FCPal: CES hydrolysis
Procedure: High purity Capecitabine (as solid crystals) was purchased from Xingcheng Chemphar Co., Ltd, P.R.China. […] Millipore water was used to prepare the prodrugs solutions with appropriate concentrations, while phosphate buffered saline (pH 7.4, PBS) was used in the preparation of different concentrations of enzyme.
Stock solution of Capecitabine was prepared by dissolving pure white Capecitabine into warm water. 1 mg/mL of Capecitabine solution was then further obtained by diluting the stock solution with milli-Q water. […] Prior to the experiments, prodrug particles were incubated at 37° C. for at least two weeks to achieve the equilibrium state of certain phases.
Stock solution of 10 mg/mL carboxylesterase solution was prepared by weighting 10 mg of powder enzyme in 1 mL of PBS buffer and shaking gently by hand. The concentration of the enzyme solution was adjusted to 1 mg/mL and 0.01 mg/mL by dilution of the stock solution. These solutions were used for the enzymatic hydrolysis of the prodrugs and Capecitabine respectively. […]
To measure the rate of the enzymatic reaction precisely, the starting substrate and the enzyme solution were mixed for a defined time by rapidly mixing together the two stock solutions and shaking. The time at which enzyme solution was added was taken as time zero for the hydrolysis reaction. The mixture was maintained at 37° C. throughout the experiment. The concentration of the hydrolysis product was then measured at various times using LC/MS (Finnigan LCQ Series, Thermo Scientific, USA). The time at which the sample was injected into the LC column was taken to be the reaction time for such sample. The hydrolysis progress curve showing the decrease in the concentration of original substrate was subsequently plotted.
The concentrations of prodrugs were determined using Thermo Finnigan LC/MS equipped with an atmospheric pressure chemical ionization (APCI) probe in positive ion mode. 10 μL of sample withdrawn from the reaction solution was injected directly into a Platinum EPS C18 100 Å 5u LC column with the length of 150 mm and internal diameter of 4.6 mm (Alltech, Australia). A mixture of 30% LCMS grade water and 70% Methanol was employed as mobile phase with the flow rate of 1 ml/min. The sample after the column separation was eluted to APCI source (MS full positive scan) to determine the molecular weight of the substrates. The vaporizer temperature of the APCI probe was set at 450° C. and the capillary temperature was operated at 200° C. The sample temperature was well maintained at 37° C. during the entire measurement by incubating the sample in the temperature controlled auto-sampler. Data were acquired and processed with Xcalibur Quan chromatography software.
The decreased concentration of substrate and the increased hydrolysis product 5′-dFCyd were detected based on the different retention time on chromatogram and m/z value in the MS positive scan. […] The decreased/increased ratio of reactant/5′dFCyd was determined by comparing the integration areas of the corresponding peaks.
The enzyme hydrolysis reaction was plotted as the logarithm of the ratio of original prodrug concentration to the decreased concentration of prodrug at a certain incubation time as a function of reaction time (Ln [S]0/[S] vs T).
In order to compare the enzymatic activity for each individual substrate to CES, we calculate a global reaction rate expressed as a specific activity (SA) (μmol/min/mg enzyme): SA=Δ[S]/(Δt·[CCES])
Here, as is common when discussing the SA, [CCES] is the enzyme concentration in mg/ml, Δ[S] is the substrate concentration change in μmol/ml during Δt time.

[5] = Lyotropic phase behaviour: water penetration scans, SAXS and XRD; type: physicochemical; details: for lyotropic phase behaviour in water penetration scans: concentration gradient from neat amphiphile to pure water, heated from room temperature; for Lyotropic phase behaviour: particle form in water at physiological temperature; for d-spacing: Lc
From the text: Lyotropic mesophase behaviour was studied using water penetration experiments. Neat amphiphile was placed on a glass slide, melted and cooled to facilitate sample homogenization and then covered with a glass cover slip. A few drops of Milli-Q water were then introduced to the edge of the cover slip which was drawn in by capillary action resulting in a concentration gradient from pure amphiphile in the centre to pure water around the edges of the cover slip. The generated mesophases were identified by their characteristic birefringent textures. Samples were then heated at 2° C./min from room temperature to ˜99° C. using an FP90 Linkam hotstage (Linkam Scientific Instruments, England). Thermotropic phase behaviour was also examined in the similar method but in the absence of water. The phases were viewed using an Olympus GX51 inverted polarising microscope (Olympus Australia Pty. Ltd, Australia) equipped with an Olympus C-5060 digital camera for image capture. All images were taken with 100× magnification unless elsewhere stated. […] The bulk phase of the binary amphiphile/water system was prepared by weighing the appropriate amount of sample and water in a sample vial. For those samples requiring pre-treatment, the samples were quickly melted in a pre-heated temperature controlled silicon-oil heating bath prior to addition of water. […] The prepared samples were analysed using an Anton-Paar SAXSess (Graz, Austria) with PANalytical PW3830 stand-alone X-ray generator operating at 40 kv, 50 mA with a sealed-tube Cu anode (λCu—Kα=0.154 nm). The samples were loaded into a paste cell sample holder at room temperature. […] Temperature control was via a TCU Temperature Control Unit (Anton Paar). […] The scattering results were recorded and analysed by the accompanied Anton Paar software.

[6] = Thermal decomposition by TGA; type: physicochemical; details: neat prodrug
[7] = porcine liver CES, 37° C., enzyme 0.5 mg/mL for prodrugs
[8] = porcine liver CES, 37° C., enzyme 0.5 mg/mL for prodrugs, 0.005 mg/ml for Capecitabine
[9] = in excess water, RT (25° C.), SAXS
[10] = in excess water with 2.3% F127 and 4.87% Ethanol, SAXS, 37° C.

Compound | mean (average) particle size [1] [nm] | Average Particle size [1] [nm] | Specific Activity (SA) at time t = 24 h [4, 7] | Specific Activity (SA) at time t = 1 h [4, 8] [µmol/min/mg] | Specific Activity (SA) at time t = 2 h [4, 8] [µmol/min/mg] | Specific Activity (SA) at time t = 6 h [4, 8] [µmol/min/mg] | Lyotropic phase behaviour [5] | temperature at which decomposition starts (TGA) [6] | particle size distribution [1] | tumours from animals sacrificed at 17 days (images) ([2]; FIG. 19) | SA relative to 5-FCPal [4] | Specific Activity (SA) at time t = 12 h [4, 7] | lyotropic phase behaviour in water penetration scans [5] | Lattice parameter ([5]; in excess water, 37° C., SAXS) | Lattice parameter [5, 9] | phase in excess water ([5]; physiological temperatures) | further results
5′-deoxy-5-fluoro-N^4-(cis-9,cis-12-octadecenyl-1-oxycarbonyl)cytidine [Prodrug 5-FCLeo] | – | – | – | – | – | – | – | – | – | – | – | – | – | – | – | fluid isotropic phase | phase at limited hydration ([5]; limited hydration, physiological temperatures): inverse phases
5′-deoxy-5-fluoro-N^4-(octadecyl-1-oxycarbonyl)cytidine [Prodrug 5-FCSte] | – | – | – | – | – | – | – | – | – | – | – | – | – | – | – | lamellar phases | –
CCCCCOC(=O)Nc1nc(=O)n([C@@H]2O[C@H](C)[C@@H](O)[C@H]2O)cc1F [Capecitabine, reference compound] | – | – | – | 733 | 717 | 598 | – | – | – | – | – | – | – | – | – | – | time to hydrolysis to 5-FC ([4]; 5 mg/ml and 0.5 mg/ml enzyme concentration): ≤ 30 min; enzyme activities (SA) ([4]; obtained from three enzymatic concentrations): 600-900 μmol/min/mg enzyme; Specific Activity (SA) at time t = 0.5 h [4, 8]: 933 µmol/min/mg
CCCCCCCC/C=C\CCCCCCCCOC(=O)Nc1nc(=O)n(C2OC(C)C(O)C2O)cc1F (stereo not drawn) [Prodrug 5-FCOle, 5′-deoxy-5-fluoro-N^4-(cis-9-octadecenyl-1-oxycarbonyl)cytidine] | 255 | 261 | – | 4.97 | 3.7 | 2.24 | Cubosome | 123 °C | 150-500 nm | significantly smaller tumours | ~10 times | 2.37 | traditional lamellar (L[…]) phase at room temperature and 3D cubic (Pn3m) phase at elevated temperatures above 33 °C | 37 °C Pn3m: 10.40 nm | 25 °C Lα: 6.01 nm | – | average 4T1 tumour volume by day 17 ([2]; 1.5 mmol for each treatment, daily for 17 days): significantly smaller tumour volumes; spleens from animals sacrificed at 17 days (images) ([2]; FIG. 19): normal spleens; time for tumours to reach a similar size as the other treatment groups after treatment was stopped ([2]; treatment stopped on day 17): a full week; Lattice parameter [5, 10]: 37 °C Pn3m: 9.10 nm; Phases [5, 10]: Pn3m; Phases ([5]; in excess water, 37° C., SAXS): 37 °C Pn3m; Phases [5, 9]: RT: Lα; Phases ([5]; neat, SAXS, 25, 37° C.): Smectic; Lattice parameter ([5]; neat, SAXS, 25° C.): 25° C.: 2.99 nm; Lattice parameter ([5]; neat, SAXS, 37° C.): 37° C.: 3.00 nm; Lattice parameter ([5]; neat, XRD, 25° C.): 2.977 nm; Phases ([5]; neat, XRD, 25° C.): Smectic

More lines, main results first:

mean (average) particle size [1] [nm] | Average Particle size [1] [nm] | Specific Activity (SA) at time t = 24 h [4, 7] | Specific Activity (SA) at time t = 1 h [4, 8] [µmol/min/mg] | Specific Activity (SA) at time t = 2 h [4, 8] [µmol/min/mg] | Specific Activity (SA) at time t = 6 h [4, 8] [µmol/min/mg] | Lyotropic phase behaviour [5] | temperature at which decomposition starts (TGA) [6] | Compound | particle size distribution [1] | tumours from animals sacrificed at 17 days (images) ([2]; FIG. 19) | SA relative to 5-FCPal [4] | Specific Activity (SA) at time t = 12 h [4, 7] | lyotropic phase behaviour in water penetration scans [5] | Lattice parameter ([5]; in excess water, 37° C., SAXS) | Lattice parameter [5, 9] | phase in excess water ([5]; physiological temperatures) | further results
164 | 219 | 1.15 µmol/min/mg | 1.03 | 1.3 | 0.67 | Hexosome | 95 °C | 5′-deoxy-5-fluoro-N^4-(3,7,11,15-tetramethyl-hexadecyl-1-oxycarbonyl)cytidine [Prodrug 5-FCPhy] | 100-300 nm | significantly smaller tumours | about 4 times | 0.89 µmol/min/mg | 3D inversed bicontinous cubic phase (Pn3m space group) initially and then transform to 2D hexagonal phase | 5.60 nm | RT: H2(5.82 nm) | – | spleens from animals sacrificed at 17 days (images) ([2]; mouse, in vivo): normal spleens; overall tumour volume at day 21 ([3]; 4T1 tumour, oral daily, day 21): second smallest overall tumour volume; behaviour and appearance of the treated mice ([3]; 4T1 tumour-bearing BALB/c mice, oral daily for 21 days): active and healthy; Phases ([5]; without water, RT, 37° C., equilibrated): Amorphous
700 | 661 | 0.27 µmol/mL | 0.3 | 0.38 | 0.33 | Solid lipid | approximately 120 °C | CCCCCCCCCCCCCCCCOC(=O)Nc1nc(=O)n([C@@H]2O[C@H](C)[C@@H](O)[C@H]2O)cc1F [Prodrug 5-FCPal, 5′-deoxy-5-fluoro-N^4-(hexadecyl-1-oxycarbonyl)cytidine] | – | – | – | – | did not swell | – | – | – | time over which hydrolysis continued towards full conversion ([4]; CES 0.5 mg/mL, 37° C.): more than 7 days; Phases ([5]; in excess water, equilibration @ RT 7 Days, RT, 37, 50° C.): Lamellar; d-spacing ([5]; in excess water, equilibration @ RT 7 Days, RT): (2.86 nm); Phases ([5]; without water, RT, 37, 50, 70, 90° C., SAXS confirmed with XRD): Lamellar; d-spacing ([5]; without water, RT): (2.87 nm)
